According to PMC6142817, “New Urea Derivatives Are Effective Anti-senescence Compounds Acting Most Likely via a Cytokinin-Independent Mechanism” (Frontiers in Plant Science, 2018):
Read-outs that look alike come from different tables or passages of the source. Blank lines part the entries; values can stand above or below the compound they belong to.

What was measured:
[1] = tested on: excised wheat leaves (chlorophyll degradation in the dark); experiment: Wheat leaf senescence assay (WLSA); format: cell-based, Triticum aestivum cv. Hereward
Experimental: (§1) Tobacco callus, Amaranthus and Wheat leaf senescence assay (WLSA) were performed as described by Holub et al. ([1998]) including the number of repetitions in each assay. An exception to the published protocols was that the tobacco callus assay was performed in 6-well microtiter plates (with each well containing 3 ml of Murashige Skoog medium into which 0.1 g of callus was added). Each compound was tested at least twice in each assay and in a wider concentration range to obtain concentration-dependent activity curves. IC50 means compound concentration at which chlorophyll degradation is inhibited by 50% and EC50 means half the maximal effective concentration.
(§2) Amaranthus assay evaluates the induction of betacyanin synthesis in Amaranthus (Amaranthus caudatus var. atropurpurea) cotyledons, which is induced by cytokinins (Bamberger and Mayer, [1960]). The WLSA evaluates the ability of compounds to retard chlorophyll degradation in excised wheat leaves that are kept in the dark. The wheat leaf segments (Triticum aestivum cv. Hereward) were used in all other experiments requiring wheat. Arabidopsis (Arabidopsis thaliana) leaf senescence assay was performed with detached leaves from 30-day-old plants, which were grown in soil in phytotron under standard conditions (Rivero et al., [2014]). Four leaves of a combined weight of 60 mg were placed in a six-well plate and stored in the dark for 12 days at 22°C. The leaves (except the fresh control leaves) floated on water solutions of tested compounds. Fresh control leaves were leaves detached from a plant and immediately used for chlorophyll determination. The duration of the senescence assay of Arabidopsis leaves was prolonged to highlight the difference in chlorophyll content between a negative control and treatments. Arabidopsis leaves were losing chlorophyll more slowly than wheat leaves. Chlorophyll extraction and spectrophotometric determination of its content was done according to Holub et al. ([1998]).

[2] = tested on: cytokinin-dependent tobacco callus; experiment: Tobacco callus bioassay; format: cell-based; conditions: for inhibition of callus growth at the highest concentration tested: 100 μM
Experimental: as §1

[3] = tested on: Amaranthus caudatus cotyledon-hypocotyl explants; experiment: Amaranthus bioassay (betacyanin synthesis); format: cell-based, Amaranthus caudatus var. atropurpurea
Experimental: as §1, §2

[4] = tested on: detached Arabidopsis leaves (chlorophyll loss in the dark); experiment: Arabidopsis leaf senescence assay; format: cell-based, Arabidopsis thaliana; conditions: 1 μM, 12 days in the dark
Text: as §2

[5] = tested on: ARR5:GUS reporter gene; experiment: Arabidopsis ARR5:GUS reporter gene assay; format: in vivo, Arabidopsis thaliana; conditions: for EC50: Arabidopsis thaliana, read-out: ARR5:GUS activation EC50; for ARR5:GUS activity, % of BA activity: 1 μM BA = 100%; for ARR5:GUS activation (in words): in vivo
Experimental: Transgenic Arabidopsis plants (Arabidopsis thaliana (L.) Heynh. accession Wassilewskija) harboring the GUS reporter gene (gene for β-glucuronidase) fused to 1.6 kb of the ARR5 (PARR5−GUS) gene promoter (D'Agostino et al., [2000]) were kindly provided by professor Thomas Schmülling. The assay was performed according to Romanov et al. ([2002]). β-Glucuronidase (GUS) activity was quantitatively determined by measuring fluorescence of 4-methylumbelliferyl (MU) on a Synergy H4 hybrid reader (Biotek, Winooski, VT) with excitation and emission wavelengths of 365 and 445 nm, respectively. GUS specific activity was determined as nmol MU × mg protein^−1 × h^−1. This was calculated by dividing the relative fluorescence units (obtained per hour) by protein content of the same sample. Protein extraction was done as described by Romanov et al. ([2002]) but its content was determined using a bicinchoninic acid reagent (Smith et al., [1985]). Finally we expressed the GUS activity in samples as a relative percentage, the activity of 1 μM BA being set as 100% activation. The concentration-dependent activity curves and EC50 values (for TDZ, tZ, BA, TD-iP, and TD-tZ) were constructed using Scion image program.

[6] = biological target: T1, AHK3 (Arabidopsis thaliana, UniProt Q9C5U1); experiment: Cytokinin receptor activation assay in E. coli (AHK3); format: cell-based
T1 construct: expressed in transfected cells; host or cells: Escherichia coli strain KMI001, plasmid pSTV28-AHK3
T1 sequence (Q9C5U1 1-1036): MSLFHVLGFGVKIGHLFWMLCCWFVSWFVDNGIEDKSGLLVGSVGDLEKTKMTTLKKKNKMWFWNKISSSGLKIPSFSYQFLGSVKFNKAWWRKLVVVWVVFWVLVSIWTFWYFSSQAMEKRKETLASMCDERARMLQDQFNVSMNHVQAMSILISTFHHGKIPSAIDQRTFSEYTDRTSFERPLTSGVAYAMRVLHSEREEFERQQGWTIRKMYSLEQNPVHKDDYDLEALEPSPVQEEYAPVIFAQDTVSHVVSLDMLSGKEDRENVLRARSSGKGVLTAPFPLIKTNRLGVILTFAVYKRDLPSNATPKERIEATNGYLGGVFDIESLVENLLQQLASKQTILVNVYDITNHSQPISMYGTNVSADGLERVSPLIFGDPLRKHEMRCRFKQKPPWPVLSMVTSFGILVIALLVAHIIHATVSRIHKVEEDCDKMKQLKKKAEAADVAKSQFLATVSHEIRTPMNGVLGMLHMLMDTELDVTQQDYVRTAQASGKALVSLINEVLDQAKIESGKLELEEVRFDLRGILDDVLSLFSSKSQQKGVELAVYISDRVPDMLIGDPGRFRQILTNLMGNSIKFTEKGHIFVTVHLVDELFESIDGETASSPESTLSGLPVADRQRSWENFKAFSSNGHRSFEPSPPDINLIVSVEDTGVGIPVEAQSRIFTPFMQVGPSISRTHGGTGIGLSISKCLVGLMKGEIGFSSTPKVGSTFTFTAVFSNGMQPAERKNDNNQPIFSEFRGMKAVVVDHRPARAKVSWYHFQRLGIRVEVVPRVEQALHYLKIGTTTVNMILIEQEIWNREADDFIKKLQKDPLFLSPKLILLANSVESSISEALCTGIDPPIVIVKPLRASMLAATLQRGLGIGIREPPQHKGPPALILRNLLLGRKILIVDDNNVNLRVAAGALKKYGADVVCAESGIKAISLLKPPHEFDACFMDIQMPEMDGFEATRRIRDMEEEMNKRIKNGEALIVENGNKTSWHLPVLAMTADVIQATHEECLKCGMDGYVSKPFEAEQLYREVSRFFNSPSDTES
Text: (§3) The activity of this enzyme is finally measured in the assay and corresponds to the ability of the tested compound to activate this cytokinin receptor. Both assays were done at least twice and the presented graphs are the most representative examples.

[7] = biological target: T2, CRE1/AHK4 (Arabidopsis thaliana, UniProt Q9C5U0); experiment: Cytokinin receptor activation assay in E. coli (CRE1/AHK4); format: cell-based; parameters: expressed in transfected cells; host or cells: Escherichia coli strain KMI001, plasmid pIN-IIIAHK4
Text: as §3

[8] = tested on: excised wheat leaves (chlorophyll degradation in the dark); conditions: read-out: WLSA IC50; ref Gajdošová et al., [2011]; cited from earlier work
[9] = biological target: T2, CRE1/AHK4; conditions: read-out: CRE1/AHK4 receptor activation EC50 (previous study); ref Nisler et al., [2010]; cited from earlier work
[10] = Triticum aestivum, 120 h, detached wheat leaves in the dark, 5 days, concentration at which chlorophyll degradation is inhibited by 50%, read-out: Senescence bioassay (IC50)
[11] = Nicotiana tabacum, half the maximal effective concentration, N.A. = not active, read-out: Tobacco callus bioassay (EC50)
[12] = Amaranthus caudatus, betacyanin synthesis, N.A. = not active, read-out: Amaranthus bioassay (EC50)
[13] = betacyanin synthesis, N.A. = not active
[14] = detached wheat leaves in the dark, 5 days, concentration at which chlorophyll degradation is inhibited by 50%, read-out: Senescence bioassay (IC50)
[15] = half the maximal effective concentration, N.A. = not active
[16] = Triticum aestivum, 120 h, read-out: Senescence bioassay (IC50, μM)
[17] = Nicotiana tabacum, read-out: Tobacco callus bioassay (EC50, μM)
[18] = Amaranthus caudatus, read-out: Amaranthus bioassay (EC50, μM)
[19] = E. coli bacterial receptor assay, read-out: AHK3 receptor activation EC50
[20] = E. coli bacterial receptor assay, read-out: CRE1/AHK4 receptor activation EC50

T2 sequence (Q9C5U0 whole entry): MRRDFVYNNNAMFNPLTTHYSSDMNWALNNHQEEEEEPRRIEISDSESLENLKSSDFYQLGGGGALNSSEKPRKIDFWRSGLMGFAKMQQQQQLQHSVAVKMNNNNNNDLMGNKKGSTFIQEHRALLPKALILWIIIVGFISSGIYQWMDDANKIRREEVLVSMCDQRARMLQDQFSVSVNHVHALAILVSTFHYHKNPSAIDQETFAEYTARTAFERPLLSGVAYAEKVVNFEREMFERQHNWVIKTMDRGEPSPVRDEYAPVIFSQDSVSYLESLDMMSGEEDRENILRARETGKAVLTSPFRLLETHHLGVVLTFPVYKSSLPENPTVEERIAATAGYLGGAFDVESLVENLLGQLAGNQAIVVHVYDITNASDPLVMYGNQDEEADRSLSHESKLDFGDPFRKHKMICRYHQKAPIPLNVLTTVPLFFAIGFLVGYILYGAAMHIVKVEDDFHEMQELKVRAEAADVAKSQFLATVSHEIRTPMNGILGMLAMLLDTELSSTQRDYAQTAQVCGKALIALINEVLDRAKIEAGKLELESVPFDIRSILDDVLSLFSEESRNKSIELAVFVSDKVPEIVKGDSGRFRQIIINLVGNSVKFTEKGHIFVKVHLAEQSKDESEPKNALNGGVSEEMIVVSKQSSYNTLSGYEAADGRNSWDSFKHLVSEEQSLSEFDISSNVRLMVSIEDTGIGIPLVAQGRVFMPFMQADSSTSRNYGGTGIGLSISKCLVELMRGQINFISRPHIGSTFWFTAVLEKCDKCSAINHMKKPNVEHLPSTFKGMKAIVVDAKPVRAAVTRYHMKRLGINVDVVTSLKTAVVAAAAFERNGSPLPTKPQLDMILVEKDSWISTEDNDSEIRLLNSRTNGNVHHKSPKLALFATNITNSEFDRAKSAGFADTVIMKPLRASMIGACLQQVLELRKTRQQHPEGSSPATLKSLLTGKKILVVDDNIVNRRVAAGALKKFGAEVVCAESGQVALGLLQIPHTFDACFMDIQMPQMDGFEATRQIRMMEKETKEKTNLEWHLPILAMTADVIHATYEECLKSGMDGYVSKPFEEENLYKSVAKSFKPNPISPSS

Compound: c1ccc(CNc2ncnc3nc[nH]c23)cc1 [BA, N^6-benzyladenine, reference compound]
IC50 [1, 10]: > 100 µM | EC50 [2, 11]: 0.06 µM | EC50 [3, 12]: 0.75 µM | % more of chlorophyll retained than DMSO (negative control) [4]: 65% | EC50 ([5]; transgenic Arabidopsis plants): 0.076 µM

Compound: O=C(NCCO)Nc1cnns1 [Compound 1]
IC50 [1, 10]: 26 µM | EC50 [2, 11]: 15 µM | Amaranthus bioassay (EC50, μM) [3, 13]: inactive

Compound: O=C(NCCCO)Nc1cnns1 [Compound 2]
IC50 [1, 10]: < 10 µM | IC50 [1, 14]: 8 µM | EC50 [2, 11]: 7 µM | EC50 [3, 12]: 75.5 µM

Compound: COCCCNC(=O)Nc1cnns1 [Compound 4]
IC50 [1, 10]: 19 µM | EC50 [2, 11]: 2.2 µM | EC50 [3, 12]: 16.7 µM

Compound: CC(O)CNC(=O)Nc1cnns1 (stereo not drawn) [Compound 5]
EC50 [2, 11]: 7.1 µM | Amaranthus bioassay (EC50, μM) [3, 13]: inactive | ARR5:GUS activity, % of BA activity ([5]; compound at 10 μM): 55–65%

Compound: COCCN(C)C(=O)Nc1cnns1 [Compound 6]
IC50 [1, 10]: 25 µM | Tobacco callus bioassay (EC50, μM) [2, 15]: completely inactive | Amaranthus bioassay (EC50, μM) [3, 13]: inactive

Compound: COCCN(CCOC)C(=O)Nc1cnns1 [Compound 7]
IC50 [1, 10]: 62 µM | Tobacco callus bioassay (EC50, μM) [2, 15]: completely inactive | Amaranthus bioassay (EC50, μM) [3, 13]: inactive | ARR5:GUS activation (in words) [5]: completely inactive

Compound: COC(CNC(=O)Nc1cnns1)OC [Compound 8]
EC50 [2, 11]: 2.4 µM | EC50 [3, 12]: 16.7 µM | ARR5:GUS activity, % of BA activity ([5]; compound at 10 μM): 55–65%

Compound: O=C(NCCCl)Nc1cnns1 [Compound 14]
IC50 [1, 16]: 14 µM | EC50 [2, 17]: 0.87 µM | Tobacco callus bioassay (EC50, μM) [2, 15]: sub-micromolar range | EC50 [3, 18]: 10.8 µM | EC50 [6]: 15 µM | ARR5:GUS activity, % of BA activity ([5]; compound at 1 μM): 65%

Compound: C/C(=C/CNc1ncnc2nc[nH]c12)CO [cis-zeatin, reference compound]
IC50 in WLSA, fold higher than IC50 of ASES [1]: 300 fold | IC50 in WLSA, fold higher than IC50 of tZ [1]: 10 fold | IC50 [8]: ~300 µM

Further lines, with some results ahead:

IC50 [1, 10]: > 100 µM | EC50 [2, 11]: 70 µM
Compound: COC(=O)CNC(=O)Nc1cnns1 [Compound 9]
EC50 [3, 12]: > 100 µM

IC50 [1, 10]: < 10 µM | IC50 [1, 14]: 8.6 µM | EC50 [2, 11]: 3.1 µM
Compound: COCC(C)NC(=O)Nc1cnns1 (stereo not drawn) [Compound 10]
EC50 [3, 12]: 26.5 µM

IC50 [1, 10]: 83 µM | Tobacco callus bioassay (EC50, μM) [2, 15]: completely inactive
Compound: CCOCCNC(=O)Nc1cnns1 [Compound 11]
EC50 [3, 12]: > 100 µM | ARR5:GUS activation (in words) [5]: completely inactive

IC50 [1, 10]: 17 µM | EC50 [2, 11]: 2.4 µM
Compound: C#CCNC(=O)Nc1cnns1 [Compound 12]
EC50 [3, 12]: 15.3 µM

IC50 [1, 10]: < 10 µM | IC50 [1, 14]: 7.1 µM | EC50 [2, 11]: 1.6 µM
Compound: C=CCNC(=O)Nc1cnns1 [Compound 13]
EC50 [3, 12]: 14.2 µM | ARR5:GUS activity, % of BA activity ([5]; compound at 10 μM): 55–65%

Tobacco callus bioassay (EC50, μM) [2, 15]: completely inactive
Compound: CN(C)CCNC(=O)Nc1cnns1 [Compound 15]
Amaranthus bioassay (EC50, μM) [3, 13]: inactive | ARR5:GUS activation (in words) [5]: completely inactive

IC50 [1, 10]: > 100 µM | EC50 [2, 11]: 0.065 µM
Compound: CC(CO)CCNc1ncnc2nc[nH]c12 (stereo not drawn) [DHZ, dihydrozeatin, reference compound]
EC50 [3, 12]: 10 µM

IC50 [1, 10]: 56 µM | EC50 [2, 11]: 0.82 µM
Compound: CC(CO)CCNC(=O)Nc1cnns1 (stereo not drawn) [TD-DHZ, N-(4-hydroxy-3-methyl-butyl)-N′-1,2,3-thiadiazol-5-yl-urea]
times less active than DHZ in tobacco callus assay [2]: 10 times | EC50 [3, 12]: 43 µM

IC50 [1, 10]: 93 µM | EC50 [2, 11]: 0.017 µM | EC50 [6, 19]: 1.4 µM | EC50 [7, 20]: 9.4 µM
Compound: CC(C)=CCNC(=O)Nc1cnns1 [TD-iP, N-2-isopentenyl-N′-1,2,3-thiadiazol-5-yl-urea]
inhibition of callus growth at the highest concentration tested [2]: did not inhibit the growth of callus | EC50 [3, 12]: 1.1 µM | EC50 ([5]; transgenic Arabidopsis plants): 0.065 µM

IC50 [1, 10]: 13 µM | EC50 [2, 11]: 0.01 µM | EC50 [6, 19]: 0.19 µM | EC50 [7, 20]: 32 µM
Compound: C/C(=C\CNC(=O)Nc1cnns1)CO [TD-tZ, N-[(E)-4-hydroxy-3-methyl-but-2-enyl]-N′-1,2,3-thiadiazol-5-yl-urea]
inhibition of callus growth at the highest concentration tested [2]: did not inhibit the growth of callus | EC50 [3, 12]: 1.5 µM | EC50 ([5]; transgenic Arabidopsis plants): 0.52 µM

IC50 [1, 16]: 30 µM | EC50 [2, 17]: 0.012 µM | EC50 [6]: 0.066 µM | EC50 [5]: 0.009 µM | EC50 [7]: 0.35 µM
Compound: C/C(=C\CNc1ncnc2[nH]cnc12)CO [tZ, trans-zeatin, reference compound]
EC50 [3, 18]: 0.9 µM | EC50 [9]: 0.2 µM

IC50 [1, 14]: > 200 µM | EC50 ([2]; half the maximal effective concentration, N.A. = not active, read-out: Tobacco callus bioassay (EC50)): 0.013 µM
Compound: N^6-isopentenyladenine [iP, reference compound]
EC50 ([3]; betacyanin synthesis, N.A. = not active, read-out: Amaranthus bioassay (EC50)): 2 µM
